≈ marks a conversion by molar mass, not a printed value.
Tests used:
[1] = Solubility in water; format: physicochemical; settings: hydrochlorides or oxalates, read-out: solubilities (in water)
In short: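 Water solubility given for the hydrochloride salts of most compounds and for the oxalate salts of a few.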

[2] = test system: Aspergillus niger; test: Agar well inhibition zone test against fungi, Aspergillus niger (Table II); settings: quantity per well giving inhibition zone (500, 50, 5 μg tested); Sabouraud agar, 28°, 48 hours
Protocol: (§1) The efficacy of the compounds against fungi was tested as follows:
(§2) The test organisms, in this case the blastomycete Candida albicans and the mold Aspergillus niger, were inoculated onto Sabouraud agar plates by pouring a photometrically adjusted standard suspension of organisms on the plate. After inoculation, wells with a diameter of 5.0 mm were punched in the agar, and filled with 50 ul of the compound solution mentioned before. The quantity of compound applied thus amounted to 500 μg, 50 μg and 5 μg. After incubation at 28° for 48 hours, the quantity of compound was determined at which an inhibition of the organism's growth, in form of an inhibition zone around the corresponding well, was present.

[3] = test system: Staphylococcus aureus; test: Agar well inhibition zone test against bacteria, Staphylococcus aureus (Table III); settings: quantity per well giving inhibition zone (500, 50, 5 μg tested); nutrient agar, 37°, 24 hours
Protocol: (§3) The efficacy of the compounds against bacteria was tested as follows:
(§4) The test organisms, in this case Staphylococcus aureus and Escherichia coli, were inoculated on nutrient agar as described in Example 12, wells were punched, and the solutions of the compounds were transferred to fill the wells. The quantity of compound in the wells amounted again to 500 μg, 50 μg and 5 μg.
(§5) After incubation a 37° for 24 hours the quantity of compound was determined at which an inhibition of the organism's growth, in the form of an inhibition zone around the corresponding well, occurred.

[4] = test system: A. niger; test: Minimum inhibitory concentration for fungi in presence of serum, A. niger (Table VI); format: cell-based; settings: Aspergillus niger; Sabouraud nutrient broth + 10% bovine serum, 28°C, 48 hours
[5] = test system: A. niger; test: Minimum inhibitory concentration for fungi, tube dilution, A. niger (Table IV); settings: Aspergillus niger, 48 h, read-out: Minimum Inhibitory Concentration, A. niger
Protocol: (§6) A tube dilution series of the respective compound in Sabouraud nutrient broth, whose individual tubes contained concentrations of 1024 μg, 512 μg, 256 μg, 128 μg, 64 μg, 32 μg, 16 μg, 8 μg, 4 μg, 2 μg, 1.1 μg and 0.5 μg/ml, was prepared and inoculated with a photometrically standardized suspension of the test organisms or the spores thereof.

[6] = test system: C. albicans; test: Minimum inhibitory concentration for fungi in presence of serum, C. albicans (Table VI); format: cell-based; settings: Candida albicans; Sabouraud nutrient broth + 10% bovine serum, 28°C, 48 hours
[7] = test system: Candida albicans; test: Agar well inhibition zone test against fungi, Candida albicans (Table II); settings: quantity per well giving inhibition zone (500, 50, 5 μg tested); Sabouraud agar, 28°, 48 hours
Protocol: as §1, §2

[8] = test system: Escherichia coli; test: Agar well inhibition zone test against bacteria, Escherichia coli (Table III); settings: quantity per well giving inhibition zone (500, 50, 5 μg tested); nutrient agar, 37°, 24 hours
Protocol: as §3, §4, §5

[9] = test system: E. coli; test: Minimum inhibitory concentration for bacteria in presence of serum, E. coli (Table VII); format: cell-based; settings: Escherichia coli; nutrient broth + 10% serum, 37°C, 48 hours
[10] = test system: C. albicans; test: Minimum inhibitory concentration for fungi, tube dilution, C. albicans (Table IV); settings: Candida albicans, 48 h, read-out: Minimum Inhibitory Concentration, C. albicans
Protocol: as §6

[11] = test system: Staph. aureus; test: Minimum inhibitory concentration for bacteria, tube dilution, Staph. aureus (Table V); settings: Staphylococcus aureus, 48 h, read-out: Minimum Inhibitory Concentration, Staph. aureus
Protocol: A tube dilution series of the respective compound in nutrient broth whose individual tubes contained concentrations of 1024 μg, 512 μg, 256 μg, 128 μg, 64 μg, 32 μg, 1 μg, 8 μg, 4 μg, 2 μg, 1.1 μg and 0.5 μg/ml was prepared and inoculated with a photometrically standardized suspension of the test organisms.

[12] = test system: E. coli; test: Minimum inhibitory concentration for bacteria, tube dilution, E. coli (Table V); format: cell-based; settings: Escherichia coli, 48 h, read-out: Minimum Inhibitory Concentration, E. coli
[13] = test system: Mycobacterium tuberculosis II 37 RV (typus humanus); test: Efficacy against Mycobacteria, Tb-broth dilution series (Table I); format: cell-based; settings: 504 h, Dubos Tb-broth + 10% bovine serum, 21 days, read-out: Minimum Inhibitory Concentration

Row | SMILES | solubility [1] | Inhibition Area at μg, Asp. niger [2] | Inhibition Area at μg, Staph. aureus [3] | MIC [4] | MIC [5] | MIC [6] | Inhibition Area at μg, Cand. albicans [7] | Inhibition Area at μg, E. coli [8] | MIC [9] | MIC [10] | MIC [11] | MIC [12] | MIC [13]
1 | CC(N1CCN(CCO)CC1)C(O)(Cc1ccc(Cl)cc1)Cc1ccc(Cl)cc1 (stereo not drawn) [XLVII, 1-(p-Chloro-phenyl)-2-(p-chloro-benzyl)-3-[4'-(β-hydroxyethyl)-piperazino-1']-butanol-2] | 100 mg/mL (≈ 229000 µM) | 5 µg | 5 µg | 64 µg/mL | 32 µg/mL (≈ 73.2 µM) | 256 µg/mL | 5 µg | 500 µg | > 1020 µg/mL | 32 µg/mL (≈ 73.2 µM) | 4 µg/mL (≈ 9.14 µM) |  | 
2 | CNCCCCCCN1CCN(C(C)C(=Cc2ccccc2)Cc2ccccc2)CC1 (stereo not drawn) [XLI, 1-phenyl-2-benzyl-3-[4'-(w-methyl-amino-n-hexyl)piperazino-1']-butene-1] | 100 mg/mL (≈ 238000 µM) | 5 µg | 50 µg | 8 µg/mL | 1 µg/mL (≈ 2.38 µM) | 128 µg/mL | 5 µg | 50 µg | 512 µg/mL | 2 µg/mL (≈ 4.77 µM) | 32 µg/mL (≈ 76.3 µM) | 32 µg/mL (≈ 76.3 µM) | 
3 | CC(C(=Cc1ccccc1Cl)Cc1ccccc1Cl)N1CCN(CCN2CCN(C)CC2)CC1 (stereo not drawn) [LXVI] | 100 mg/mL (≈ 199000 µM) | 5 µg | 5 µg | 128 µg/mL | < 0.5 µg/mL | 1020 µg/mL | 5 µg | 50 µg |  | 4 µg/mL (≈ 7.98 µM) | 32 µg/mL (≈ 63.8 µM) | 128 µg/mL (≈ 255 µM) | 
4 | CC(C(=Cc1ccccc1)Cc1ccccc1)N1CCN(CCN(C)C)CC1 (stereo not drawn) [XXVI, 1-phenyl-2-benzyl-3-[4'-(β-dimethylamino-ethyl)-piperazino-1']-butene-1] | 100 mg/mL (≈ 265000 µM) | 5 µg | 50 µg | 32 µg/mL | 4 µg/mL (≈ 10.6 µM) | 16 µg/mL | 5 µg | 50 µg |  | 8 µg/mL (≈ 21.2 µM) | 128 µg/mL (≈ 339 µM) | 128 µg/mL (≈ 339 µM) | 
5 | CNCCN1CCN(C(C)C(=Cc2ccccc2)Cc2ccccc2)CC1 (stereo not drawn) [XXV, 1-phenyl-2-benzyl-3-[4'-(β-methylamino-ethyl)-piperazino-1']-butene-1] | 100 mg/mL (≈ 275000 µM) | 5 µg | 5 µg | 64 µg/mL | 8 µg/mL (≈ 22 µM) | 256 µg/mL | 5 µg | 50 µg | 512 µg/mL | 64 µg/mL (≈ 176 µM) | 64 µg/mL (≈ 176 µM) | 64 µg/mL (≈ 176 µM) | 10 µg/mL
6 | C(=C(CCN1CCN(CCN2CCCCC2)CC1)Cc1ccccc1)c1ccccc1 [LXIV] | 100 mg/mL (≈ 239000 µM) | 5 µg | 5 µg | 8 µg/mL | 8 µg/mL (≈ 19.2 µM) | 128 µg/mL | 50 µg | 5 µg |  | 8 µg/mL (≈ 19.2 µM) | 8 µg/mL (≈ 19.2 µM) | 256 µg/mL (≈ 613 µM) | 
7 | CC(C(=Cc1ccc(Cl)cc1)Cc1ccc(Cl)cc1)N1CCN(CCN2CCN(C)CC2)CC1 (stereo not drawn) [XLII, 1-p-chloro-phenyl-2-p-chloro-benzyl-3-{4'-[β-(4"-methyl-piperazino-1")-ethyl]-piperazino-1'}-butene-1] | 100 mg/mL (≈ 199000 µM) | 5 µg | 5 µg | 32 µg/mL | < 0.5 µg/mL | 256 µg/mL | 5 µg | 5 µg | 1020 µg/mL | < 0.5 µg/mL | 32 µg/mL (≈ 63.8 µM) | 32 µg/mL (≈ 63.8 µM) | 
8 | CCCCCCCC[N+](C)(C)CCN1CCN(C(C)C(=Cc2ccccc2)Cc2ccccc2)CC1 (stereo not drawn) [XLIII, Dimethyl-n-octyl-β-[4-(1'-phenyl-2'-benzylbutene-1'-yl-3')-piperazino-1]-ethyl-ammoniumbromide] | < 10 mg/mL | 5 µg | 5 µg | 64 µg/mL | < 0.5 µg/mL | 128 µg/mL | 5 µg | 5 µg | 128 µg/mL | < 0.5 µg/mL | < 0.5 µg/mL | 1 µg/mL | 
9 | Clc1ccc(C=C(CCN2CCN(CCN3CCCCC3)CC2)Cc2ccc(Cl)cc2)cc1 [LXIII, 1-(p-chloro-phenyl)-2-(p-chlorobenzyl)-4-[4'-(β-piperidino-ethyl)-piperazino-1']-butene-1] | < 10 mg/mL | 50 µg | 5 µg | 32 µg/mL | < 0.5 µg/mL | 128 µg/mL | 5 µg | 5 µg |  | 32 µg/mL (≈ 65.8 µM) | 8 µg/mL (≈ 16.4 µM) | 64 µg/mL (≈ 132 µM) | 
10 | CCCCCCCCN1CCN(CCCCCCN2CCN(C(C)C(=Cc3ccccc3)Cc3ccccc3)CC2)CC1 (stereo not drawn) [LXII, 1-phenyl-2-benzyl-3-[4'-w-(4"-n-octyl-piperazino-1")-n-hexyl-piperazino-1']-butene-1] | 25 mg/mL (≈ 42600 µM) | 50 µg | 5 µg | 512 µg/mL | < 0.5 µg/mL | 1020 µg/mL | 5 µg | 50 µg |  | 2 µg/mL (≈ 3.41 µM) | 16 µg/mL (≈ 27.3 µM) | 1020 µg/mL (≈ 1740 µM) | 
11 | CC(C(=Cc1ccccc1)Cc1ccccc1)N1CCN(CCN2CCN(CCc3ccccc3)CC2)CC1 (stereo not drawn) [XXXIX, 1-phenyl-2-benzyl-3-{4'-[β-(4"-β-phenethylpiperazino-1")-ethyl]-piperazino-1'}-butene-1] | 50 mg/mL (≈ 95600 µM) | 5 µg | 5 µg | 128 µg/mL | 32 µg/mL (≈ 61.2 µM) | 64 µg/mL | 5 µg | 50 µg |  | 4 µg/mL (≈ 7.65 µM) | 32 µg/mL (≈ 61.2 µM) | > 1020 µg/mL | 
12 | CCCCCCCCNCCCCCCN1CCN(C(C)C(=Cc2ccccc2)Cc2ccccc2)CC1 (stereo not drawn) [XL, 1-phenyl-2-benzyl-3-[4'-(w-n-octyl-amino-n-hexyl)piperazino-1']-butene-1] | 10 mg/mL (≈ 19300 µM) | 5 µg | 5 µg | 2 µg/mL | < 0.5 µg/mL | 64 µg/mL | 5 µg | 5 µg | 1020 µg/mL | < 0.5 µg/mL | < 0.5 µg/mL | 32 µg/mL (≈ 61.8 µM) | 

— patent publication US3947411A, “Novel 1-aryl-2-arylalkyl-3-or-4-[4'-(substituted-alkyl)piperazino-1']butanols- 2-or-butenes-1, and methods of manufacture thereof” (Warner-Lambert Company, priority 1972, dated 1976)
